# Assay results taken from patent EP4114474B1, “HEMOSTATIC AGENT” (Industria Farmaceutica Nova Argentia S.r.l., priority 2020, dated 2021).
# Assays:
# NIH3T3L6 fibroblasts = experiment: In vitro cytotoxicity, trypan blue cell viability; type: cell-based, murine
# Description: The cytotoxic effect was assessed in vitro thanks to the use of murine fibroblasts (NIH3T3L6 fibroblasts from Leibniz-Institute DSMZ-Deutsche Sammlung von Mikroorganismen und Zellkulturen GmbH; Brunswick, Germany) and, once the cells were propagated, we prepared the following experimental groups: • control (NIH3T3L6 cells without any treatment); • iron chloride 5% ([…]); • iron ammonium citrate 5.3% + Rock alum 1.7% ([…] 5.3% + Rock alum 1.7%); • iron ammonium citrate 5.3% ([…] 5.3%); • Rock alum 1.7% ([…]).
# The in vitro cytotoxicity analysis thanks to the evaluation of the trypan blue allowed us to obtain the percentage of viable cells in each experimental group.
# [1] = Coagulation tests with combinations of ferric and ferrous salts and other potentially coagulating salts (Example 2); conditions: CONC. TEST 5.00% by weight
# Description: Before reaching the formula object of the invention various other combinations of ferric and ferrous Salts with other potentially coagulating Salts were tested. Below are briefly reported the combinations of Salts tested and the results obtained also in comparison with Ferric Chloride.
structure (smiles),measurement,setting,value
O.O.O.O.O.O.[Cl-].[Cl-].[Cl-].[Fe+3] [Ferric Chloride (FeCl3 · 6H2O)],"cytotoxic effect (cell death, percentage of viable cells by trypan blue)","NIH3T3L6 fibroblasts; NIH3T3L6 cells incubated 30"" with 100µL",significant cell death
same,cell death,"NIH3T3L6 fibroblasts; incubation of murine fibroblasts for a time greater than 45""-50""",complete cell death
same,RESULTS (coagulation),[1],coagulates
